Data reported in patent US20150182583A1, “METHODS FOR TREATMENT AND PREVENTION OF TAUOPATHIES BY INHIBITING ENDOTHELIN RECEPTORS” (Board of Regents, The University of Texas System, priority 2012, published 2015).
“Also recorded” adds a separate entry of the source. Non-standard residues stand in square brackets, D forms with d. Residues, ends and D or L forms follow the SMILES beside them. dGly(5-dibenzosuberyl) = N[C@@H](C(=O)O)C1c2ccccc2CCc2ccccc21

Experiments:
[1] = tested on: endothelin receptors A and B; test: Mouse model of brain trauma, endothelin receptor phosphorylation; assay type: in vivo; conditions: 10 mg/kg/day i.p. for 5 days prior to wounding, continued 3 days after
[2] = tested on: ET-1 stimulated astrocytes; test: Real-time PCR of APOE/TAU mRNA in ET-1 stimulated astrocytes; assay type: cell-based, murine; conditions: ET-1 (100 nM) 24 hr; PD145065 (1 μM) added 2 hrs prior to ET-1; FIG. 12
Protocol: FIG. 12: Expression level of APOE and TAU expression level in control astrocytes and astrocytes treated with BQ123 plus […] or PD145065. Treatment groups were as follows: Control, ET-1 (100 nM), ET-1+BQ123/BQ788 (1 μM), ET-1+PD145065 (1 μM). Cells were treated with ET-1 for 24 hr. BQ123, BQ788 or PD145065 was added 2 hrs prior to ET-1 stimulation.
To determine whether ETs upregulation in astrocytes culture with tumor cells, we performed in vitro coculture experiments. Astrocytes and NIH 3T3 fibroblasts were transfected with green fluorescent protein (GFP) genes. […] RT-PCR was performed using TaqMan® Universal PCR MasterMix and quantified with an ABI 7500 real time PCR system (Applied Biosystems, Foster City, Calif.). […] Relative mRNA expression was calculated according to the […], and expressed as mean±S.D. of mRNA relative to that of control.
Astrocytes and NIH 3T3 fibroblasts were transfected with green fluorescent protein (GFP) genes. […] RT-PCR was performed using TaqMan® Universal PCR MasterMix and quantified with an ABI 7500 real time PCR system (Applied Biosystems, Foster City, Calif.). […] Relative mRNA expression was calculated according to the AACt method and expressed as mean±S.D. of mRNA relative to that of control.

GFAP = test: Mouse model of brain trauma, GFAP staining; assay type: in vivo; conditions: 10 mg/kg/day i.p. for 5 days prior to wounding, continued 3 days after
Protocol: (§1) A mouse model of brain trauma was used to evaluate the effect of a dual endothelin receptor antagonist (PD 145065) on TAU expression after a brain trauma. A parenchyma mouse model of brain trauma was used such that mice received a stereotaxically administered wound to the brain Immunochemistry was performed on brain samples to evaluate GFAP and TAU expression.
(§2) The mice were euthanatized 1, 2, or 4 days after creating the wound in the brain parenchyma. The brains were removed, fixed in formalin and stained for GFAP or (GFAP and TAU) using immunofluorescent staining.
(§3) Mice were pretreated with PD145065 10 mg/kg/day i.p. injection for 5 days prior to brain wounding. Control mice received saline injections. Treatment continued for 3 days after wounding. The brains were harvested 3 days after wounding and immunofluorescent staining immunohistochemistry experiments were performed.

TAU [3] = test: Mouse model of chemo-brain (paclitaxel or TMZ), TAU immunohistochemistry; assay type: in vivo; conditions: for TAU production/expression in brain caused by the chemotherapeutic: mice bearing brain cancer (LN229 GBM) or normal mice, paclitaxel 8 mg/kg i.p. twice per week, TMZ 7.5 mg/kg p.o. daily
Protocol: The following methods were used to test for the in vivo effect of a dual endothelin receptor on a mouse model of chemo-brain. PD145065: SIGMA (SCP0143, 5 mg) was reconstituted in PBS containing 0.1% BSA. Temozolomide (TMZ): SIGMA (T2577-100 MG), was reconstituted in DMSO (10 mg/mL) with sonication and diluted in HBSS before treatment TAXOL (paclitaxel): Hospira (NDC 61703-342-09, 6 mg/mL) was diluted in saline before treatment. Mice were treated for 6 weeks with either TMZ (7.5 mg/kg, p.o., daily) or paclitaxel (8 mg/kg, i.p., twice per week) with or without PD145065 (10 mg/kg, i.p., daily). Treatment groups were as follows:
Mice were euthanized and the brains were collected and frozen (OCT) or placed in formalin and embedded in paraffin and then processed for IHC. Female nude mice were treated with Taxol (8 mg/kg) i.p. twice per week for six weeks. […] Female nude mice were treated orally with 7.5 mg/kg TMZ every day for six weeks.

TAU [4] = test: Mouse model of brain trauma (parenchymal wound), TAU immunofluorescent staining; assay type: in vivo; conditions: 10 mg/kg/day i.p. for 5 days prior to wounding, continued 3 days after; brains harvested 3 days after wounding
From the text: Brain parenchymal wound was created by inserting a needle (32 G-21 G) by stereotactic injection unit. In brief, a mouse was anesthetized with Nembutal ([…]) and fixed in the stereotactic injection unit. Skin incision was made in the forehead and a hole was made in the calvaria with a 21 G needle. Injection needle was inserted into the brain parenchyma (4-mm depth) and withdrawn. Hole was blocked with bone wax and skin incision was closed with skin staples.
as §1, §2, §3

TAU [5] = test: Chronic hypoxia (hypoxia chamber) in mice, TAU immunohistochemistry; assay type: in vivo, mouse; conditions: hypoxia chamber 1-3 days; daily i.p. injections, or pretreatment 7 days before 48 hours of hypoxia
Protocol: Mice were placed in a sealed plexiglass chamber with controlled input of oxygen-nitrogen gas to establish an oxygen level of 5.705% oxygen. One to 3 days later, the mice are euthanized or placed in room air (normoxia). The brains are harvested, fixed in formalin, or frozen for histology/immunohistochemistry examination. Staining for GFAP (astrocytes), TAU, endothelin receptor A or B (phosphorylation) was carried out.
Mice were placed in a hypoxia chamber for 1-3 days are taken out and divided into 2 groups: (1) treated with PD145065 (dual endothelin receptor inhibitor), or (2) saline. Treatments are by daily i.p. injections. The brains of control and treated mice are harvested 2-5 days later and processed for histological examination Immunohistochemistry for GFAP, TAU, ETAR, and ETBR (phosphorylation) was carried out.
The following methods were used for the chronic hypoxia (hypoxia chamber) experiments. Mice were placed in a sealed plexiglass chamber with controlled input of oxygen-nitrogen gas to establish an oxygen level of 5.705% oxygen. One to 3 days later, the mice were euthanized or placed in room air (normoxia). The brains were harvested, fixed in formalin, or frozen for histology/immunohistochemistry examination. Staining for GFAP (astrocytes), TAU, endothelin receptor A or B phosphorylation was carried out. […]

MDA231 = test: Tumor cell-astrocyte protection assay (MDA231 protection assay); assay type: cell-based, human; conditions: FIG. 15
[6] = Body weight of mice treated with paclitaxel with or without PD145065; assay type: in vivo, mouse
Protocol: Studies to evaluated prevention and/or treatment of chemo-brain by PD145065 were performed. Female athymic nude mice (NCI-nu) were used in these studies. Mice were used in these experiments in accordance with institutional guidelines when they were 14-16 weeks old. Mice were randomized as follows;
Mice showing weight loss, dehydration (poor skin tugor) or poor movement (poor oral intake, decreased ambulation, etc.) were defined as symptomatic mice.
Prevention and/or treatment of Chemo-brain by PD145065 was evaluated via the following protocol. Treatment continued for 12 weeks and treatment and prevention groups were defined as follows: […]
(1) Treatment group—mice receiving TMZ or taxol (group 3 or 4) and showing symptoms defined above for two consecutive weeks began to receive PD145065;
(3) Prevention group—mice were receiving (PD+TMZ) or (PD+taxol) for 12 weeks (group 5 or 6).

ETA and ETB receptors = test: Immunohistochemistry of endothelin receptor phosphorylation (with the protection assay); assay type: cell-based; conditions: FIG. 15
From the text: Next the inventor used the compound PD 145065, which is a dual endothelin receptor inhibitor (antagonist), in further experiments. […] PD145065 may be administered orally to mice. Based on the in vitro data, it is anticipated that PD145065 may be used to decrease TAU in the brain in vivo.

## CC[C@H](C)[C@H](NC(=O)[C@H](CC(=O)O)NC(=O)[C@H](CC(C)C)NC(=O)[C@H](NC(C)=O)C1c2ccccc2CCc2ccccc21)C(=O)N[C@H](C(=O)N[C@@H](Cc1c[nH]c2ccccc12)C(=O)O)[C@@H](C)CC [PD145065, N-Acetyl-α-[10,11-Dihydro-5H-dibenzo[a,d]cycloheptadien-5-yl]-D-Gly-Leu-Asp-Ile-Ile-Trp] (Ac-[dGly(5-dibenzosuberyl)]LDIIW-OH)
[1]
  phosphorylation of endothelin receptors A and B (ETAR, ETBR) in wounded brain: inhibited phosphorylation; also recorded: reduced phosphorylation or be not phosphorylated
[2]
  APOE/TAU mRNA expression: observed to have an effect
GFAP
  GFAP in wounded brain: unchanged; also recorded: contain activated (GFAP-positive) astrocytes
TAU [3]; PD145065 10 mg/kg i.p. daily, 6 weeks, TMZ 7.5 mg/kg p.o. daily or paclitaxel 8 mg/kg i.p. twice per week
  TAU expression in brain of mice treated with paclitaxel or TMZ: significantly reduced TAU expression
TAU [4]
  TAU expression / TAU positive cells in brain after wound: not in brains of mice pretreated; also recorded: significantly diminished or eliminated; also recorded: negative; also recorded: reduced tau expression
TAU [5]
  TAU expression in brain resulting from hypoxia: inhibited TAU expression; also recorded: significantly lower than in the brains of control mice; also recorded: reduced tau expression; also recorded: significant decrease in TAU expression
MDA231
  blocking the ability of astrocytes protection of tumor cells from chemotherapy: as effective as the combination of BQ123 and BQ788
[6]; PD 10 mg/kg i.p. daily plus taxol 8 mg/kg i.p. twice per week, FIG. 23
  weight loss associated with paclitaxel, prevention (co-administration): completely inhibit the weight loss
[6]; PD145065 given to mice receiving paclitaxel beginning on day 49, FIG. 22
  weight loss associated with paclitaxel, treatment group: reversal of the weight loss
ETA and ETB receptors
  phosphorylation of ETA and ETB receptors: can prevent phosphorylation

## CC(=O)O[C@H]1C(=O)[C@@]2(C)[C@H]([C@H](OC(=O)c3ccccc3)[C@]3(O)C[C@H](OC(=O)[C@H](O)[C@@H](NC(=O)c4ccccc4)c4ccccc4)C(C)=C1C3(C)C)[C@]1(OC(C)=O)CO[C@@H]1C[C@@H]2O [paclitaxel]
TAU [3]
  TAU production/expression in brain caused by the chemotherapeutic: result in the production of TAU
TAU [3]; listed as Taxol
  TAU production/expression in brain caused by the chemotherapeutic: high expression of TAU
[6]; paclitaxel alone, FIG. 22
  body weight of paclitaxel-treated mice: loss of weight

## Cn1nnc2c(C(N)=O)ncn2c1=O [temozolomide]
TAU [3]
  TAU production/expression in brain caused by the chemotherapeutic: result in the production of TAU
TAU [3]; listed as TMZ
  TAU production/expression in brain caused by the chemotherapeutic: high expression of TAU
